Literature values in paper PMC7235863, “Benzamide Derivatives Targeting the Cell Division Protein FtsZ: Modifications of the Linker and the Benzodioxane Scaffold and Their Effects on Antimicrobial Activity” (Antibiotics, 2020).
Values after ≈ are worked out from the molar mass of the structure shown.

Key:
[1] = tested on: E. coli AcrAB–; conditions: ref 10 (Z2, Z3), 11 (TXY436), 12 (I, II); cited from earlier work
[2] = tested on: E. coli WildType; set-up: method as in earlier work; conditions: ref 10 (Z2, Z3), 11 (TXY436), 12 (I, II); cited from earlier work
[3] = tested on: Methicillin Sensitive S. aureus; conditions: Methicillin Sensitive S. aureus; ref 10 (Z2, Z3), 11 (TXY436), 12 (I, II); cited from earlier work
[4] = tested on: ESBL E. coli; set-up: method as in PMID 31750973; conditions: in-house reference compounds ref 12; cited from earlier work
[5] = tested on: E. coli ATCC 25922; set-up: method as in PMID 31750973; conditions: in-house reference compounds ref 12; cited from earlier work
[6] = tested on: Sa cells; set-up: method as in PMID 31750973; conditions: Sa cells incubated with the compounds ref 12; cited from earlier work
[7] = tested on: E. coli N43; set-up: method as in PMID 31750973; conditions: E. coli N43 (AcrAB knockout); in-house reference compounds ref 12; cited from earlier work
[8] = tested on: selected Gram-negative strains; set-up: method as in PMID 24637241; conditions: after genetic inactivation of AcrAB or its inhibition by PaβN ref 11; cited from earlier work

Compound	MIC [1]	MIC [2]	MIC [3]	MIC [4]	MIC [5]	Morphometric analysis by TEM [6]	MIC [7]	MIC [8]
CC[n+]1c(/C=C/N(C)c2ccccc2)n(-c2ccccc2)c2ccc(-c3nc4ccccc4s3)cc21 [Compound Z2]	2.5 mg/L	20 mg/L	0.6 mg/L	–	–	–	–	–
CSc1nc(-c2ccc3c(c2)OC(COc2ccc(F)c(C(N)=O)c2F)CO3)no1 (stereo not drawn) [I]	16 mg/L (≈ 36.7 µM)	–	0.6 mg/L (≈ 1.38 µM)	>100 mg/L	>100 mg/L	significant elongation in cellular dimension, bacterial swelling and cell desegregation	16 mg/L (≈ 36.7 µM)	–
CN(C)CNC(=O)c1c(F)ccc(OCc2nc3cc(Cl)cnc3s2)c1F [TXY436]	8 mg/L (≈ 19.4 µM)	–	1.0 mg/L (≈ 2.42 µM)	–	–	–	–	8 mg/L (≈ 19.4 µM)
